Among the test systems are HCC-2998 colon; HL-60(TB) leukemia; OVCAR-4 ovarian; OVCAR-5 ovarian; SF-295 CNS; SK-MEL-2 melanoma; SK-OV-3 ovarian; SN12C renal; SNB-75 CNS; UO-31 renal.
What all share (test): NCI tumour cell line growth inhibition, 48 h

Structures are written as SMILES.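 All cell lines were grown in 96-well plates and treated with compound for 48 hours. TGI marks complete inhibition of growth.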

Turning to `c1c(N2CCOCC2)ssc1=[N+]1CCOCC1`, the TGI in the assay on HCC-2998 colon, in the assay with HL-60(TB) leukemia, in the assay on OVCAR-4 ovarian, in the assay on OVCAR-5 ovarian, in the assay with SF-295 CNS and in the assay on SK-MEL-2 melanoma was more than 100 µM throughout. The TGI in the assay on SK-OV-3 ovarian, in the assay with SN12C renal, in the assay with SNB-75 CNS and in the assay on UO-31 renal was more than 100 µM throughout.
On to `Cc1nnc2n1-c1ccccc1N(Cc1ccccc1)CC2`, for which the TGI in the assay with HCC-2998 colon was more than 100 µM; in the assay on HL-60(TB) leukemia it was 60 µM; with OVCAR-4 ovarian, more than 100 µM; in the assay on OVCAR-5 ovarian it was more than 100 µM; in the assay with SF-295 CNS it was more than 100 µM; in the assay with SK-MEL-2 melanoma, more than 100 µM. Moreover, the TGI in the assay on SK-OV-3 ovarian, with SN12C renal, with SNB-75 CNS and with UO-31 renal was more than 100 µM each time.
As to `O=C(/C=C\Nc1ccccc1O)C(F)(F)F`, the TGI in the assay on HCC-2998 colon was more than 100 µM; in the assay with HL-60(TB) leukemia, 67.8 µM; with OVCAR-4 ovarian it was more than 100 µM; with OVCAR-5 ovarian, more than 100 µM; in the assay with SF-295 CNS, more than 100 µM; with SK-MEL-2 melanoma, more than 100 µM. The TGI in the assay on SK-OV-3 ovarian, in the assay with SN12C renal, in the assay with SNB-75 CNS and with UO-31 renal was more than 100 µM each time.
Regarding `CC1(C)OC[C@@H](C[C@H](O)COCc2ccccc2)O1`, the TGI in the assay with HCC-2998 colon, in the assay with HL-60(TB) leukemia, in the assay with OVCAR-4 ovarian, in the assay with OVCAR-5 ovarian, in the assay on SF-295 CNS and in the assay on SK-MEL-2 melanoma was more than 100 µM each time. Also, the TGI with SK-OV-3 ovarian, with SN12C renal, in the assay on SNB-75 CNS and with UO-31 renal was more than 100 µM each time.
Turning to `NC(N)=NS(=O)(=O)c1ccc(NC(=O)c2cccc3c(NNc4ccc(S(N)(=O)=O)cc4)c4ccccc4nc23)cc1`, the TGI is more than 100 µM in the assay with HCC-2998 colon; 66.2 µM in the assay on HL-60(TB) leukemia; more than 100 µM in the assay with OVCAR-4 ovarian; more than 100 µM in the assay with OVCAR-5 ovarian; more than 100 µM in the assay with SF-295 CNS; more than 100 µM with SK-MEL-2 melanoma. Further, the TGI with SK-OV-3 ovarian, with SN12C renal, in the assay with SNB-75 CNS and in the assay with UO-31 renal was more than 100 µM throughout.
`Nc1nncc2[nH]cnc12`: the TGI with HCC-2998 colon is more than 100 µM; in the assay on HL-60(TB) leukemia, 42.9 µM; in the assay with OVCAR-4 ovarian, more than 100 µM; with OVCAR-5 ovarian, more than 100 µM; in the assay with SF-295 CNS, more than 100 µM; in the assay on SK-MEL-2 melanoma, more than 100 µM. In addition, the TGI with SK-OV-3 ovarian, in the assay with SN12C renal, in the assay with SNB-75 CNS and with UO-31 renal was more than 100 µM each time.
For the compound `CN(C)CCNc1c([N+](=O)[O-])sc2ccc(Cl)cc12`, the TGI in the assay on HCC-2998 colon, with HL-60(TB) leukemia, in the assay on OVCAR-4 ovarian, in the assay with OVCAR-5 ovarian, in the assay on SF-295 CNS and in the assay with SK-MEL-2 melanoma was more than 100 µM throughout. Besides, the TGI in the assay with SK-OV-3 ovarian is more than 100 µM; in the assay on SN12C renal, more than 100 µM; in the assay on SNB-75 CNS, 43 µM; with UO-31 renal, more than 100 µM.
Regarding `O=[N+]([O-])/C(Cl)=C(/C(Cl)=C(Cl)Cl)N1CCCCC1`, the TGI amounted to 33.4 µM in the assay with HCC-2998 colon; 4.83 µM with HL-60(TB) leukemia; 27.5 µM in the assay on OVCAR-4 ovarian; 29.2 µM in the assay on OVCAR-5 ovarian; 54.3 µM with SF-295 CNS; 48 µM in the assay on SK-MEL-2 melanoma. Further, the TGI with SK-OV-3 ovarian is more than 100 µM; in the assay with SN12C renal, 27.4 µM; in the assay with SNB-75 CNS, 56 µM; in the assay with UO-31 renal, 25.7 µM.
As to `CCCCCCc1cc2cc(-c3csc(-c4ccc(OC)cc4)n3)c(=O)oc2cc1O`, the TGI with HCC-2998 colon is 31.5 µM; in the assay on HL-60(TB) leukemia, more than 100 µM; in the assay on OVCAR-4 ovarian, 7.39 µM; in the assay on OVCAR-5 ovarian, 79.9 µM; in the assay on SF-295 CNS it was 28.5 µM; with SK-MEL-2 melanoma, 32 µM. Moreover, the TGI is 33.1 µM in the assay with SK-OV-3 ovarian, 23.6 µM in the assay on SN12C renal, 47.2 µM with SNB-75 CNS and 19.8 µM with UO-31 renal.
On to `Clc1cc(C(c2cc(Cl)sc2Cl)c2cc(Cl)sc2Cl)c(Cl)s1`, for which the TGI with HCC-2998 colon, in the assay with HL-60(TB) leukemia, in the assay on OVCAR-4 ovarian, in the assay on OVCAR-5 ovarian, in the assay with SF-295 CNS and in the assay with SK-MEL-2 melanoma was more than 100 µM throughout. For the same compound, the TGI in the assay with SK-OV-3 ovarian, with SN12C renal, with SNB-75 CNS and in the assay on UO-31 renal was more than 100 µM in each case.
Turning to `Cc1cc(S(=O)(=O)Nc2n[nH]c(Nc3ccccc3)n2)c(SCC(=O)O)cc1Cl`, the TGI in the assay with HCC-2998 colon, in the assay on HL-60(TB) leukemia, in the assay on OVCAR-4 ovarian, in the assay with OVCAR-5 ovarian, in the assay on SF-295 CNS and in the assay on SK-MEL-2 melanoma was more than 100 µM throughout. Besides, the TGI in the assay on SK-OV-3 ovarian, in the assay with SN12C renal, in the assay on SNB-75 CNS and with UO-31 renal was more than 100 µM throughout.
With `COc1cc2c3c(cc(Cl)nc3c1OC)C(=O)C(=O)N2`, the TGI with HCC-2998 colon came out at 33.6 µM; in the assay with HL-60(TB) leukemia, 3.56 µM; with OVCAR-4 ovarian it was 3.05 µM; with OVCAR-5 ovarian, 32.2 µM; in the assay on SF-295 CNS, 32.9 µM; in the assay with SK-MEL-2 melanoma it was 27.6 µM. Moreover, the TGI in the assay with SK-OV-3 ovarian was determined as 33.3 µM; in the assay on SN12C renal, 21 µM; in the assay on SNB-75 CNS it was 29.4 µM; in the assay with UO-31 renal it was 26.7 µM.

(Values after PubChem BioAssay (NCI).)
